This is an account of results in patent US10183011B2, “Anti-depression compounds” (Board of Regents of the University of Texas System, priority 2009, dated 2019).

Structures are written as SMILES. Entries after “also recorded” stand apart in the source; their conditions may differ. Some results are limits rather than exact numbers.

For assay [1], the system named is G93A-SOD1 transgenic mice. Description: G93A-SOD1 model of ALS, treatment from 40 days of age. The format is in vivo, mouse. As for the experimental part:
FIG. 24A, FIG. 24B, FIG. 24C and FIG. 24D. Example 45 Compound (P7C3) Provides Therapeutic Benefit in Animal Model of Amyotrophic Lateral Sclerosis (ALS). Female G93A SOD1 mice (n=30 in each group, with all mice sibling matched across treatment groups) were treated with either vehicle or P7C3 (10 mg/kg i.p. twice daily) starting at 40 days of age. […] This score is determined as follows: ‘0’=full extension of hind legs away from lateral midline when the test mouse is suspended by its tail, and can hold this for 2 seconds, suspended 2-3 times; ‘1’=collapse or partial collapse of leg extension towards lateral midline (weakness) or trembling of hind legs during tail suspension; ‘2’=toes curl under at least twice during walking of 12 inches, or any part of foot drags along cage bottom/table; ‘3’=rigid paralysis or minimal joint movement, foot not being used for forward motion; and ‘4’=mouse cannot right itself within 30 seconds from either side. With further disease progression, vehicle-treated mice show the expected decline in retention time on the accelerating rotarod, with retention time averaged across 4 trials (FIG. 24C, open bars). P7C3-treated mice, however, show a consistent trend towards improved performance on this task after onset of disease (FIG. 24C, filled bars), with statistically significant improvement on days 131, 138 and 145 (*, p<0.001, Student's t Test). All graphical data shown above is mean+/−SEM, with statistical analysis conducted using the Student's t Test). As another means of disease progression, walking gait was evaluated. […] Front paws are dipped in red ink, and back paws are dipped in black ink. […] All analysis was conducted blind to treatment group.
P7C3 was intraperitoneally administered to female G93A-SOD1 transgenic mice using a treatment paradigm of 10 mg/kg P7C3 i.p. twice a day, compared to vehicle, starting at 40 days of age. This treatment scheme was selected based on standard protocols for initial proof of concept screens in these mice. To control for transgene copy number, mice are sibling matched between treatment groups, as per standard protocol. After initiation of P7C3 or vehicle treatment, date of onset of illness is determined by peak weight, and initial progression of disease is defined as the day at which mice fall to 10% below their maximum weight. Mice are also assessed daily by a standard determination of neurological severity score, with a score of 2 or worse for two consecutive days serving as an additional marker of illness progression. This score is determined blind to treatment group with the scoring system described in the legend for the figure. […]
As an initial test of efficacy in this disease model, we intraperitoneally administered P7C3 to female G93A-SOD1 transgenic mice using a treatment paradigm of 20 mg/kg/day P7C3, with vehicle administered to siblings, starting at 40 days of age. […] To control for transgene copy number, mice were sibling matched between treatment groups, as per standard protocol, and quantitative PCR was performed to ensure that the copy number was maintained within the normal range. After initiation of P7C3 or vehicle treatment, date of onset of illness was determined by peak weight, and initial progression of disease was defined as the day at which mice fell to 10% below their maximum weight. Mice were also assessed daily by a standard measure of neurological severity score ranging from 0-4, with a higher number reflecting greater neurologic impairment. […]

The target in a further assay is β-secretase (BACE1) (Homo sapiens, UniProt P56817). Conditions: Asso V., et al. (2008) Chem Med Chem 3:1530-1534; cited from earlier work.
The subject of another assay is hippocampal neurogenesis. Nature of the assay: Neurogenic efficacy of orally administered compound, dose response. In kind it is in vivo, mouse. Conditions: for pro-neurogenic or neuroprotective efficacy, oral: daily oral gavage for 7 days. The text has this:
FIG. 7: Neurogenic efficacy of orally administered Example 45 Compound was dose-related. […] Results shown are the average obtained from analysis of 5 adult wild type male mice at each dose.
Pharmacokinetic analysis of Example 45 Compound in plasma and whole brain tissue was undertaken after single IV, IP and oral gavage administrations. […] These favorable pharmacological properties facilitated a dose response experiment wherein daily oral administration of Example 45 Compound to adult mice was monitored for both brain levels of the chemical and pro-neurogenic efficacy (FIG. 7).

For assay [2], the system named is TH+ dopaminergic neurons in the substantia nigra. Nature of the assay: MPTP model of Parkinson's disease, treatment before, during and after MPTP. The format is in vivo, mouse (C57BL/6). To be noted: 10 mg/kg i.p. twice daily; MPTP 30 mg/kg/day for 5 days. The protocol: FIG. 25A and FIG. 25B. Example 6a Compound (P7C3A20) Provides Therapeutic Benefit in Animal Model of Parkinson's Disease. Mice were treated with MPTP (30 mg/kg i.p.) or Vehicle only for 5 days and then immunohistochemically analyzed for tyrosine hydroxylase staining (TH) 21 days later (FIG. 25A). Treatment with MPTP and Vehicle (n=6) reduced the number of TH+ neurons in the substantia nigra (FIG. 25B) by approximately 50% (*, p=0.0002, Student's t test) relative to mice that received Vehicle only (n=8). […] TH+ neurons in the substantia nigra of every mouse were counted blind to treatment group by two investigators using Image J software, and results were averaged.
MPTP (1-methyl-4-phenyl-1,2,3,6-tetrahydropyridine) is a potent neurotoxin that selectively kills dopaminergic neurons in the substantia nigra of both mice and monkeys, causing a clinical picture resembling PD. The MPTP toxicity model can therefore be used to study the death of dopaminergic neurons with the goal of developing new treatments for PD based on neuroprotective strategies found to be effective in these neurons. […] TH-positive cells were counted in the substantia nigra area.

The mark [3] stands for this setting: 10 mg/kg i.p. twice a day from 40 days of age.

β-secretase (BACE1), sequence (P56817 46-501, species assumed): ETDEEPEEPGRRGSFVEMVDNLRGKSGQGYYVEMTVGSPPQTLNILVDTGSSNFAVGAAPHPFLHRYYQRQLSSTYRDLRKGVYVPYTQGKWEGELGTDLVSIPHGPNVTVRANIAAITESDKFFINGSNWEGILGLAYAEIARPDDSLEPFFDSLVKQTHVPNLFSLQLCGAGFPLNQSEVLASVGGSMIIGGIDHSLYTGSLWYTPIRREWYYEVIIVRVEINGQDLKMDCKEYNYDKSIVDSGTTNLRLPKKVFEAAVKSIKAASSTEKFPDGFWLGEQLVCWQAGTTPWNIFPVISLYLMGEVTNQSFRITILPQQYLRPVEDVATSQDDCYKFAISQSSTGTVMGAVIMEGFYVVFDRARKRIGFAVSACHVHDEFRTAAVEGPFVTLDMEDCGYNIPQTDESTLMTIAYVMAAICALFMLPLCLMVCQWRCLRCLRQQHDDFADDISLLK

As for `OC(CNc1ccccc1)Cn1c2ccc(Br)cc2c2cc(Br)ccc21` (stereo not shown) [Example P7C3], in assay [1] (setting [3]), the accelerating rotarod performance result was “significantly improved performance in the accelerating rotarod task”, the “age at neurological severity score of 2” value is given as “significantly delays the age at which G93A-SOD1 mice attain a neurological severity score of 2”, the “disease progression: time point of drop to 10% below maximum weight” value is reported as “slows disease progression” and the “walking gait (ink footprint)” value is “preservation of normal gait on day 118”. Further, the survival entry in assay [1] (20 mg/kg/day from 40 days of age) is listed as “did not translate into increased survival of the animals”.
For `OC(CNc1cccc2ccccc12)Cn1c2ccc(Cl)cc2c2cc(Cl)ccc21` (stereo not shown) [Example P7C3-S184], at β-secretase (BACE1), the BACE1 inhibition result is “reported as a β-secretase (BACE1) inhibitor”.
With `OC(CNc1ccccc1)Cn1c2ccc(Br)cc2c2cc(Br)ccc21` (stereo not shown) [Example 45 Compound], in the assay with hippocampal neurogenesis (daily oral administration to adult mice), the “oral dose giving maximal pro-neurogenic efficacy” value is on record as at least 5 mg/kg. In addition, the figures for the “pro-neurogenic or neuroprotective efficacy, oral” value in the assay with hippocampal neurogenesis (doses 5 to 40 mg/kg) and with hippocampal neurogenesis (doses below 1.0 mg/kg) were “roughly double that of vehicle control” and “no greater than vehicle control”, respectively.
With `COc1cccc(NCC(F)Cn2c3ccc(Br)cc3c3cc(Br)ccc32)c1` (stereo not shown) [Example P7C3A20, N-(3-(3,6-dibromo-9H-carbazol-9-yl)-2-fluoropropyl)-3-methoxyaniline], the “MPTP-mediated death of TH+ neurons in the substantia nigra” value in assay [2] was “significantly attenuates MPTP-mediated killing of substantia nigra dopaminergic neurons; also recorded: significantly attenuated”.
